Structures can show the parent of a compound that is named as a salt.
What follows are compounds tested against GCN2 (Homo sapiens, UniProt Q9P2K8) (assay: GCN2 enzymatic endpoint assay: phosphorylation of GFP-eIF2α measured by TR-FRET (Lanthascreen)). Conditions: GCN2 biochemical IC50; 4 nM GCN2, 2 μM ATP, 80 nM GFP-eIF2α, 90 min RT; read-out: GCN2 activity.
Type: biochemical
Method in brief: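 Phosphorylated eIF2α read by Lanthascreen TR-FRET (acceptor 520 nm over donor 495 nm) after EDTA stop. The reaction ran 90 min at room temperature on 80 nM GFP-eIF2α with 2 μM ATP.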

Chain of GCN2 (Q9P2K8 whole entry): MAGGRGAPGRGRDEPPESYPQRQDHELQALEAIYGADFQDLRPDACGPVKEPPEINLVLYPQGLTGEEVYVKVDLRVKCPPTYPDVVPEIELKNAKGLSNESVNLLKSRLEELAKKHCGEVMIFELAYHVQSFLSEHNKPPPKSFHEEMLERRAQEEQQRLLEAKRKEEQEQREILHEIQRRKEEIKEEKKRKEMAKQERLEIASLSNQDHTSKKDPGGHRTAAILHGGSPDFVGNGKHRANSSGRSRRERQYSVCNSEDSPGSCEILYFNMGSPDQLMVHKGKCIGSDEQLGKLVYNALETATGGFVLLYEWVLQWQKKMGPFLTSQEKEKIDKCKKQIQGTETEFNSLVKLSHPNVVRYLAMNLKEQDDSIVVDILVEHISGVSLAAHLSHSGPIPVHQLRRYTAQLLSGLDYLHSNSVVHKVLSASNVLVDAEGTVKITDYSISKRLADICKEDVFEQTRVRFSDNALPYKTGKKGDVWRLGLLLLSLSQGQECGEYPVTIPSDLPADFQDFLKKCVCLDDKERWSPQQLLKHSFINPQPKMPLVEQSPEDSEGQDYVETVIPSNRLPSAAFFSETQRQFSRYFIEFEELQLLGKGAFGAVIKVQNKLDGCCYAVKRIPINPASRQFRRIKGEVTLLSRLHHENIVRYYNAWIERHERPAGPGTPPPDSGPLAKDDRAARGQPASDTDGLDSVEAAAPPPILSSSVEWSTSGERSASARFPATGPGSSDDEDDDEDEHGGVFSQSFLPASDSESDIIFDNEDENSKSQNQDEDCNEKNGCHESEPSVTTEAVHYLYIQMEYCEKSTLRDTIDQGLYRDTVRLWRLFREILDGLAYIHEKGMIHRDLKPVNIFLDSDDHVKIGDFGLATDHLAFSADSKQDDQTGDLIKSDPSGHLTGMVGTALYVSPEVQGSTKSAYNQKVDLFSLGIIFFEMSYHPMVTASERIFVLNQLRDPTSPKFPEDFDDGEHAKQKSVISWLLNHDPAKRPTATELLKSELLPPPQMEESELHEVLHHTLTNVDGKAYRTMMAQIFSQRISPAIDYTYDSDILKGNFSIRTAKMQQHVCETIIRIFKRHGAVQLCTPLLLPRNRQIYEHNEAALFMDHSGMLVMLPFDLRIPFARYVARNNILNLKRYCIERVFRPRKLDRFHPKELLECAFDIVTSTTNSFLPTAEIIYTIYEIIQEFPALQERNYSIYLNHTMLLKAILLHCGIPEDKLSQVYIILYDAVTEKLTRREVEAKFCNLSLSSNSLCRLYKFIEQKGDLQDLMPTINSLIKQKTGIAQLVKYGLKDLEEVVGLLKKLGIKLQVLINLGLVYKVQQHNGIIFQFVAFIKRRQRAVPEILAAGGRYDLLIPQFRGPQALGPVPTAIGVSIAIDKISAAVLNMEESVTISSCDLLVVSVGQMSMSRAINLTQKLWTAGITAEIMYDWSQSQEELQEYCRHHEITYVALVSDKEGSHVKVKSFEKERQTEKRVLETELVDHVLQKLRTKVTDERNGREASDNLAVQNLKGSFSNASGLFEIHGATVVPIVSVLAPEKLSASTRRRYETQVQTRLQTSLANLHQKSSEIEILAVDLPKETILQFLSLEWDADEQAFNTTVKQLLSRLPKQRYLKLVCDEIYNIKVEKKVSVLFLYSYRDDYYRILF

Row | SMILES | IC50
1 | CC[C@@H](N)c1cc(-n2nc(Br)c3cnc(N[C@@H]4CC[C@@](C)(C(=O)NC)C4)nc32)cc2nccnc12 [Example 66, (1R,3R)-3-((1-(8-((R)-1-aminopropyl)quinoxalin-6-yl)-3-bromo-1H-pyrazolo[3,4-d]pyrimidin-6-yl)amino)-N,1-dimethylcyclopentane-1-carboxamide] | < 25 nM
2 | CNC(=O)[C@]1(CC(F)F)CC[C@@H](Nc2ncc3c(Br)nn(-c4ccc5nccnc5c4)c3n2)C1 [Example 51, (1R,3R)-3-((3-bromo-1-(quinoxalin-6-yl)-1H-pyrazolo[3,4-d]pyrimidin-6-yl)amino)-1-(2,2-difluoroethyl)-N-methylcyclopentane-1-carboxamide; 2,2,2-trifluoroacetic acid] | 25 to 200 nM
3 | CNC(=O)[C@]1(CC(F)F)CC[C@@H](Nc2ncc3c(Br)nn(-c4ccc(-c5nnc(C)s5)cc4)c3n2)C1 [Example 39, (1R,3R)-3-((3-bromo-1-(4-(5-methyl-1,3,4-thiadiazol-2-yl)phenyl)-1H-pyrazolo[3,4-d]pyrimidin-6-yl)amino)-1-(2,2-difluoroethyl)-N-methylcyclopentane-1-carboxamide; 2,2,2-trifluoroacetic acid] | < 25 nM
4 | CNC(=O)[C@]1(CC(F)F)CC[C@@H](Nc2ncc3c(Br)nn(-c4ccc(-c5nnc(C)s5)c(CCC#N)c4)c3n2)C1 [Example 53, (1R,3R)-3-((3-bromo-1-(3-(2-cyanoethyl)-4-(5-methyl-1,3,4-thiadiazol-2-yl)phenyl)-1H-pyrazolo[3,4-d]pyrimidin-6-yl)amino)-1-(2,2-difluoroethyl)-N-methylcyclopentane-1-carboxamide; 2,2,2-trifluoroacetic acid] | 25 to 200 nM

Second part, the compound after the results:

Row | IC50 | SMILES
5 | < 25 nM | CNC(=O)[C@]1(CCC#N)CC[C@@H](Nc2ncc3c(Br)nn(-c4cc(F)c5ncccc5c4)c3n2)C1 [Example 43, (1S,3R)-3-((3-bromo-1-(8-fluoroquinolin-6-yl)-1H-pyrazolo[3,4-d]pyrimidin-6-yl)amino)-1-(2-cyanoethyl)-N-methylcyclopentane-1-carboxamide hydrochloride]
6 | < 25 nM | COCCNC(=O)[C@@H]1CC[C@@H](Nc2ncc3c(I)nn(-c4ccc5ncccc5c4)c3n2)C1 [Example 13, (1R,3R)-3-((3-iodo-1-(quinolin-6-yl)-1H-pyrazolo[3,4-d]pyrimidin-6-yl)amino)-N-(2-methoxyethyl)cyclopentane-1-carboxamide]

Same assay, conditions: tested as described in Example 77; compound and/or hydrochloride, dihydrochloride or trifluoroacetic acid salt; read-out: IC 50 Activity

Row | SMILES | IC50
7 | CNC(=O)[C@]1(C)CC[C@@H](Nc2ncc3c(Br)nn(-c4ccc(OCCO)c(Cl)c4)c3n2)C1 [(1R,3R)-3-[[3-bromo-1-[3-chloro-4-(2-hydroxyethoxy)phenyl]pyrazolo [3,4-d]pyrimidin-6-yl]amino]-N,1-dimethyl-cyclopentanecarboxamide] | 25 to 200 nM
8 | CNC(=O)[C@]1(C)CC[C@@H](Nc2ncc3c(Br)nn(-c4ccc(-c5ncco5)c(NC(=O)[C@H]5CCNC5)c4)c3n2)C1 [(3S)-N-[5-[3-bromo-6-[[(1R,3R)-3-methyl-3-(methylcarbamoyl)cyclopentyl]amino]pyrazolo[3,4-d]pyrimidin-1-yl]-2-oxazol-2-yl-phenyl]pyrrolidine-3-carboxamide] | < 25 nM
9 | CNC(=O)[C@]1(C)CC[C@@H](Nc2ncc3c(Br)nn(-c4cccc(Oc5ccncc5)c4)c3n2)C1 [(1R,3R)-3-[[3-bromo-1-[3-(4-pyridyloxy)phenyl]pyrazolo[3,4-d]pyrimidin-6-yl]amino]-N,1-dimethyl-cyclopentane-carboxamide] | 25 to 200 nM
10 | CNC(=O)[C@]1(C)CC[C@@H](Nc2ncc3c(Br)nn(-c4ccc(-c5nnc(C)s5)c(OCS(C)(=O)=O)c4)c3n2)C1 [(1R,3R)-3-[[3-bromo-1-[3-(methylsulfonyl-methoxy)-4-(5-methyl-1,3,4-thiadiazol-2-yl)phenyl]pyrazolo[3,4-d]pyrimidin-6-yl]amino]-N,1-dimethyl-cyclopentane-carboxamide] | 25 to 200 nM
11 | CNC(=O)[C@]1(C)CC[C@@H](Nc2ncc3c(Br)nn(-c4cc5cccnc5cn4)c3n2)C1 [(1R,3R)-3-[[3-bromo-1-(1,7-naphthyridin-6-yl)pyrazolo[3,4-d]pyrimidin-6-yl]amino]-N,1-dimethyl-cyclopentane-carboxamide] | 25 to 200 nM
12 | Cc1nnc(-c2ccc(-n3nc(Br)c4cnc(NC5CC(O)C5)nc43)cc2)s1 (centres unmarked) [3-[[3-bromo-1-[4-(5-methyl-1,3,4-thiadiazol-2-yl)phenyl]pyrazolo[3,4-d]pyrimidin-6-yl]amino]cyclobutanol] | 25 to 200 nM
13 | Cc1nnc(-c2ccc(-n3nc(Br)c4cnc(N[C@@H]5CC[C@@](C)(C(=O)NCC(F)F)C5)nc43)cc2)s1 [(1R,3R)-3-[[3-bromo-1-[4-(5-methyl-1,3,4-thiadiazol-2-yl)phenyl]pyrazolo [3,4-d]pyrimidin-6-yl]amino]-N-(2,2-difluoroethyl)-1-methyl-cyclopentane-carboxamide] | 25 to 200 nM
14 | Cc1nnc(-c2ccc(-n3nc(Br)c4cnc(NC5CC(S(C)(=O)=O)C5)nc43)cc2)s1 (centres unmarked) [3-bromo-N-(3-methylsulfonylcyclobutyl)-1-[4-(5-methyl-1,3,4-thiadiazol-2-yl)phenyl] pyrazolo[3,4-d]pyrimidin-6-amine] | 25 to 200 nM
15 | CNC(=O)[C@]1(C)CC[C@@H](Nc2ncc3c(Br)nn(-c4cc(CCCO)c5c(c4)CCC(=O)N5C)c3n2)C1 | < 25 nM
16 | CNC(=O)[C@]1(C)CC[C@@H](Nc2ncc3c(Br)nn(-c4ccc(-n5nccc5C)cc4)c3n2)C1 [(1R,3R)-3-[[3-bromo-1-[4-(5-methyl-pyrazol-1-yl)phenyl]pyrazolo[3,4-d]pyrimidin-6-yl]amino]-N,1-dimethyl-cyclopentanecarboxamide] | 25 to 200 nM
17 | CNC(=O)[C@]1(C)CC[C@@H](Nc2ncc3c(Br)nn(-c4ccc5c(c4)CCN(C(=O)C4CNC4)C5)c3n2)C1 [(1R,3R)-3-[[1-[2-(azetidine-3-carbonyl)-3,4-dihydro-1H-isoquinolin-6-yl]-3-bromo-pyrazolo[3,4-d]pyrimidin-6-yl]amino]-N,1-dimethyl-cyclopentanecarboxamide] | 25 to 200 nM

Now from value to compound:

Row | IC50 | SMILES
18 | 25 to 200 nM | CNC(=O)[C@]1(C)CC[C@@H](Nc2ncc3c(Br)nn(-c4cc(C5CNCCO5)c5ncccc5c4)c3n2)C1 (stereo partly drawn) [(1R,3R)-3-[[3-bromo-1-(8-morpholin-2-yl-6-quinolyl)pyrazolo[3,4-d]pyrimidin-6-yl]amino]-N,1-dimethyl-cyclopentane-carboxamide]
19 | 25 to 200 nM | N#Cc1cc(-n2nc(Br)c3cnc(N[C@@H]4CC[C@@H](C(=O)N5CCC5)C4)nc32)cc2cccnc12 [6-(6-(((1R,3R)-3-(azetidine-1-carbonyl)cyclopentyl)amino)-3-bromo-1H-pyrazolo [3,4-d]pyrimidin-1-yl)quinoline-8-carbonitrile]
20 | 500 to 1000 nM | O=C(N[C@H]1CC[C@](O)(C(F)(F)F)CC1)[C@@H]1CC[C@@H](Nc2ncc3c(Br)nn(-c4ccc5ncccc5c4)c3n2)C1
21 | 25 to 200 nM | Fc1cc(-n2nc(Br)c3cnc(NC4COC5(CCNCC5)C4)nc32)cc2cccnc12 (centres unmarked) [N-[3-bromo-1-(8-fluoro-6-quinolyl)pyrazolo [3,4-d]pyrimidin-6-yl]-1-oxa-8-azaspiro[4.5] decan-3-amine]
22 | 25 to 200 nM | O=C([C@@H]1CC[C@@H](Nc2ncc3c(Br)nn(-c4ccc5ncccc5c4)c3n2)C1)N1CCN(CCO)CC1 [((1R,3R)-3-((3-bromo-1-(quinolin-6-yl)-1H-pyrazolo[3,4-d]pyrimidin-6-yl)amino)cyclopentyl)(4-(2-hydroxyethyl)piperazin-1-yl)methanone]
23 | < 25 nM | N#Cc1cc(-n2nc(Br)c3cnc(N[C@@H]4CC[C@@H](C(=O)N5CCS(=N)(=O)CC5)C4)nc32)cc2cccnc12

From patent US11046699B2, “Pyrazolo-pyrimidin-amino-cycloalkyl compounds and their therapeutic uses” (RAPT THERAPEUTICS, INC., priority 2018, dated 2021)
